Columns and labels:
Tyk2 = Tyk2 (Homo sapiens (Human), UniProt P29597); assay: pSTAT4 Cell Assay (MSD, NK92 cells); assay type: cell-based; details: MSD
JH2 domain of human Tyk2 = JH2 domain of human Tyk2 (Homo sapiens (Human), UniProt P29597); assay: JH2 Biochemical Assay (TR-FRET probe displacement); assay type: binding
JAK2 = JAK2 (Homo sapiens (Human), UniProt O60674); assay: pSTAT5 Cell Assay (MSD, TF1 cells); assay type: cell-based; details: MSD
Method in brief: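 Serum-starved TF1 cells were pretreated with compound for 1 h (10-point four-fold series from 10 μM), then stimulated with 30 ng/mL IL-3 for 15 min. pSTAT5 in lysates was measured by MSD immunoassay. IC50 came from a 4-parameter logistic fit.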

JAK1 = JAK1 (Homo sapiens (Human), UniProt P23458); assay: pSTAT3 Cell Assay (MSD, TF1 cells); assay type: cell-based; details: MSD
Sequence of JAK1 (P23458 whole entry): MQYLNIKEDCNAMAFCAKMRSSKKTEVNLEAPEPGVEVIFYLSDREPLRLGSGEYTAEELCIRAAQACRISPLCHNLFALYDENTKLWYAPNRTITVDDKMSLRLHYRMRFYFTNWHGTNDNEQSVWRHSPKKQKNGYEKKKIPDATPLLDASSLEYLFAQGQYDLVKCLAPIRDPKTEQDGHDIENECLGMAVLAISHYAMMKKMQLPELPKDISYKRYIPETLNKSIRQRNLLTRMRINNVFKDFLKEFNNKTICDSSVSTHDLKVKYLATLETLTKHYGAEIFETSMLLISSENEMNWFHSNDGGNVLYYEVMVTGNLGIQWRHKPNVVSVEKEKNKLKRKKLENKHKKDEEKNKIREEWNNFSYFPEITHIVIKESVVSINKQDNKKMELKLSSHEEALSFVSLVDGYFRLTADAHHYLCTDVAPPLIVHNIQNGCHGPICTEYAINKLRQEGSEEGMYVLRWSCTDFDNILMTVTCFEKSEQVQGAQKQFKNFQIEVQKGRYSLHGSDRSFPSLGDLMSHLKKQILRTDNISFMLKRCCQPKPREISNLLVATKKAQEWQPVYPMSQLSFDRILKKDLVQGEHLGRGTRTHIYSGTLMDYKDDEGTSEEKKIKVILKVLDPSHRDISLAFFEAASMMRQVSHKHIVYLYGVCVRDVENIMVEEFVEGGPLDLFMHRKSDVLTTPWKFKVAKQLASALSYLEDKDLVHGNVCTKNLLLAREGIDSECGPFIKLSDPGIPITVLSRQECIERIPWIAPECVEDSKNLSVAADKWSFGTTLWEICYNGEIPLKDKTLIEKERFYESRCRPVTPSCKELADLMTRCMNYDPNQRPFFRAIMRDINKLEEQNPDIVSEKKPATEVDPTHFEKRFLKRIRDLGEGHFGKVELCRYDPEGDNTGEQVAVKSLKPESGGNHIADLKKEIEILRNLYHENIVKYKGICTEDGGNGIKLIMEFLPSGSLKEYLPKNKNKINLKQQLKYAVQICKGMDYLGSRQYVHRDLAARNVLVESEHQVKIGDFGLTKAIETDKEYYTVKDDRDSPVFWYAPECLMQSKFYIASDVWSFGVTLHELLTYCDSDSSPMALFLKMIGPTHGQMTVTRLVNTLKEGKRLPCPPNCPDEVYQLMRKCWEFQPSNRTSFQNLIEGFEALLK
Method in brief: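 IC50 values reflect 4-parameter logistic fits of normalized pSTAT3 signal, measured by MSD in lysed TF1 cells. Cells were serum-starved and treated with compound for 1 h (top concentration 10 μM) before a 15 min IL-6 challenge.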

[1] = TR-FRET probe displacement, JH2 domain of human Tyk2
[2] = JH2 domain of human Tyk2, TR-FRET probe displacement

Sequence of JAK2 (O60674 whole entry): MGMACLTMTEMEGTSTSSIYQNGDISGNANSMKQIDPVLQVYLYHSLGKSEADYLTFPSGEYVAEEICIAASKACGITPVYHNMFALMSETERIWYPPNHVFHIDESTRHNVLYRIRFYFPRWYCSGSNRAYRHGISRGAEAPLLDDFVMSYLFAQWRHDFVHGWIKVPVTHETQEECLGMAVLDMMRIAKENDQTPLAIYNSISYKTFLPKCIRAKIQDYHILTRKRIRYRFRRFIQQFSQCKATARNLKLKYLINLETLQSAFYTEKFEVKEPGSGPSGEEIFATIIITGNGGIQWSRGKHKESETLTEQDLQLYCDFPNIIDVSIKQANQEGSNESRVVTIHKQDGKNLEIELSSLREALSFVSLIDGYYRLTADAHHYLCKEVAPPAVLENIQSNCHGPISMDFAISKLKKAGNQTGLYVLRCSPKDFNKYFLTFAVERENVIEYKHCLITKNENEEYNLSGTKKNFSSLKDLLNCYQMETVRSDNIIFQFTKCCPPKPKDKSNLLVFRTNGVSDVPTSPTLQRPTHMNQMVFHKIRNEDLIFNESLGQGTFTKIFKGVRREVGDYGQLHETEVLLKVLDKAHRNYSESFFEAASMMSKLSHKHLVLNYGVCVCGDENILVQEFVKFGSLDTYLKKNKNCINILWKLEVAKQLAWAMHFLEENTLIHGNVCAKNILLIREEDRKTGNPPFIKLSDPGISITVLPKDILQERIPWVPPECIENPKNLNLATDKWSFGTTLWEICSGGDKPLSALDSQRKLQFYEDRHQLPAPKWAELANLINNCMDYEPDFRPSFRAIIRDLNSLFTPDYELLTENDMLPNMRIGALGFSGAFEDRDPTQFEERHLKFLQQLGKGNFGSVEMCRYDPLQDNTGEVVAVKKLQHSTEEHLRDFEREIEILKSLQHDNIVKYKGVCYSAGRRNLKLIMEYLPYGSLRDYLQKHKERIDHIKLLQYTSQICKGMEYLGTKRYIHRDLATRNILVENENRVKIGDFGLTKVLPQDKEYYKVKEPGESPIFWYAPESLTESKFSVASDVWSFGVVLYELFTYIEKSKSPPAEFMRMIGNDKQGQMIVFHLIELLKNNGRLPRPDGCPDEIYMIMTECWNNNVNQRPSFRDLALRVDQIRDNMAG
Sequence of JH2 domain of human Tyk2 (P29597 575-876): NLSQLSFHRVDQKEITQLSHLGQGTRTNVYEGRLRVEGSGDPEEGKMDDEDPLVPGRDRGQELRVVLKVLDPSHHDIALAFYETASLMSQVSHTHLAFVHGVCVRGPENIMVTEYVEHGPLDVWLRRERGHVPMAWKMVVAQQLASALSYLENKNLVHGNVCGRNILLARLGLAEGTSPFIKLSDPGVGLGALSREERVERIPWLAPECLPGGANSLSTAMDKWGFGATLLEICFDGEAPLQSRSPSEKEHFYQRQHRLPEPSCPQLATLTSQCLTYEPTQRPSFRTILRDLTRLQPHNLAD
Sequence of Tyk2 (P29597 whole entry, the tested form may be a part): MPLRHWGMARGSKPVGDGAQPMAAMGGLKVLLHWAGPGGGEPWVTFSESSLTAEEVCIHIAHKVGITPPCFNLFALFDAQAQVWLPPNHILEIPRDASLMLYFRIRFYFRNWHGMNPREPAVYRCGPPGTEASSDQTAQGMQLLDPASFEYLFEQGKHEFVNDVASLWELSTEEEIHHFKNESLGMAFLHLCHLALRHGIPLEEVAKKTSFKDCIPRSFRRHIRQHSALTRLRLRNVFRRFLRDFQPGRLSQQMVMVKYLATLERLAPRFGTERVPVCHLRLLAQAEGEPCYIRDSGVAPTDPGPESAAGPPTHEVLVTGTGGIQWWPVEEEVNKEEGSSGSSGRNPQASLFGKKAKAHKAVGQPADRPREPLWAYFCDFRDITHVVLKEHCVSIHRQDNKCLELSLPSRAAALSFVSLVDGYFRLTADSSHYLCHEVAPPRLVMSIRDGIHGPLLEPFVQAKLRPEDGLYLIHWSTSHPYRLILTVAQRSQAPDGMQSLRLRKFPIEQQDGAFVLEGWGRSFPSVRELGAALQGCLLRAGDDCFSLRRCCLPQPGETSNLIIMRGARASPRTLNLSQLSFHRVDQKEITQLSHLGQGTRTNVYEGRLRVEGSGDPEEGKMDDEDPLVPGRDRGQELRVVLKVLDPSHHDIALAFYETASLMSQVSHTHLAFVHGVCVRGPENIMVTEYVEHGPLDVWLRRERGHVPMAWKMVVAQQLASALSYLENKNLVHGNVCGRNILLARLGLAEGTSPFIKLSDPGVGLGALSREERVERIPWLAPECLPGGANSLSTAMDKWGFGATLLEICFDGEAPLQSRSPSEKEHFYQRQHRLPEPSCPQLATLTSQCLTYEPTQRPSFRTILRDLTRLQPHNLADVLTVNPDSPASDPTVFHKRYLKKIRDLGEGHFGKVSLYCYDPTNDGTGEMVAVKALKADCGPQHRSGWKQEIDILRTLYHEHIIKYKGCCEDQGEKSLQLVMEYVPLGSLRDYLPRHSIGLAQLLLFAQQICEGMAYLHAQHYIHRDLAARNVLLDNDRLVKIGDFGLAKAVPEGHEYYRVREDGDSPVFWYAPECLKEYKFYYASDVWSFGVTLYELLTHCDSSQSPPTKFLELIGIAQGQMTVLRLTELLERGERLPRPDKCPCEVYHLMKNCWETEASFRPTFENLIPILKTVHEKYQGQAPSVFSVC

Structure (SMILES) | IC50 (Tyk2) | IC50 (JH2 domain of human Tyk2; [1]) | IC50 (JAK2; IL-3 stimulation) | IC50 (JAK1; IL-6 stimulation) | IC50 (JH2 domain of human Tyk2; [2]) | IC50 (JAK2; IL-3 stimulated) | IC50 (JAK1; IL-6 stimulated)
CC(=O)Nc1cc(Nc2cc(C)nc(C(C)(F)F)n2)c(-c2nc3c(s2)CN(C)CC3)cn1 [Example 238, N-(4-((2-(1,1-difluoroethyl)-6-methylpyrimidin-4-yl)amino)-5-(5-methyl-4,5,6,7-tetrahydrothiazolo[5,4-c]pyridin-2-yl)pyridin-2-yl)acetamide] | ≤ 0.01 µM | ≤ 0.01 µM | ≥ 1 µM | ≥ 1 µM |  |  | 
CC(=O)Nc1cc(Nc2cc(C)nc(C(C)(F)F)n2)c(-c2cc(C(F)F)ncn2)cn1 [Example 246, N-(4-((2-(1,1-difluoroethyl)-6-methylpyrimidin-4-yl)amino)-5-(6-(difluoromethyl)pyrimidin-4-yl)pyridin-2-yl)acetamide] | 0.01 to 0.1 µM | ≤ 0.01 µM | ≥ 1 µM | ≥ 1 µM |  |  | 
COCCn1ncc(-c2cnc(NC(C)=O)cc2Nc2cc(C)nc(C(C)(F)F)n2)n1 [Example 260, N-(4-((2-(1,1-difluoroethyl)-6-methylpyrimidin-4-yl)amino)-5-(2-(2-methoxyethyl)-2H-1,2,3-triazol-4-yl)pyridin-2-yl)acetamide] | ≤ 0.01 µM | ≤ 0.01 µM | ≥ 1 µM | ≥ 1 µM |  |  | 
CCc1cc(Nc2cc(NC(C)=O)ncc2-c2ccc(CN3CCOCC3)cn2)nc(C(C)(F)F)n1 [Example 268, N-(4′-((2-(1,1-difluoroethyl)-6-ethylpyrimidin-4-yl)amino)-5-(morpholinomethyl)-[2,3′-bipyridin]-6′-yl)acetamide] | ≤ 0.01 µM | ≤ 0.01 µM | ≥ 1 µM | ≥ 1 µM |  |  | 
CC(=O)Nc1cc(Nc2cc(C)nc(C(C)(F)F)n2)c(-c2ccncn2)cn1 [Example 270, N-(4-((2-(1,1-difluoroethyl)-6-methylpyrimidin-4-yl)amino)-5-(pyrimidin-4-yl)pyridin-2-yl)acetamide] | ≤ 0.01 µM | ≤ 0.01 µM | ≥ 1 µM | ≥ 1 µM |  |  | 
CC(=O)Nc1cc(Nc2ccnc(C(C)(F)F)n2)c(-c2ccc(N(C)C)cn2)cn1 [Example 276, N-(4′-((2-(1,1-difluoroethyl)pyrimidin-4-yl)amino)-5-(dimethylamino)-[2,3′-bipyridin]-6′-yl)acetamide] | ≤ 0.01 µM | ≤ 0.01 µM | ≥ 1 µM | ≥ 1 µM |  |  | 
CNC(=O)Nc1cc(Nc2cc(C)nc(C(C)(F)F)n2)c(-c2ccn(C)n2)cn1 [Example 289, 1-(4-((2-(1,1-difluoroethyl)-6-methylpyrimidin-4-yl)amino)-5-(1-methyl-1H-pyrazol-3-yl)pyridin-2-yl)-3-methylurea] | ≤ 0.01 µM | ≤ 0.01 µM | ≥ 1 µM | ≥ 1 µM |  |  | 
COCCOc1cnc(NC(C)=O)cc1Nc1cc(OC2CC2)nc(C(C)(F)F)n1 [Example 298, N-(4-((6-cyclopropoxy-2-(1,1-difluoroethyl)pyrimidin-4-yl)amino)-5-(2-methoxyethoxy)pyridin-2-yl)acetamide] | ≤ 0.01 µM | ≤ 0.01 µM | ≥ 1 µM | ≥ 1 µM |  |  | 
COCCOc1cnc(NC(C)=O)cc1Nc1cc(C(C)C)nc(C(C)(F)F)n1 [Example 300, N-(4-((2-(1,1-difluoroethyl)-6-isopropylpyrimidin-4-yl)amino)-5-(2-methoxyethoxy)pyridin-2-yl)acetamide] | ≤ 0.01 µM | ≤ 0.01 µM | ≥ 1 µM | ≥ 1 µM |  |  | 
CCOc1cnc(NC(C)=O)cc1Nc1cc(-c2cnn(C)c2)nc(C(C)(F)F)n1 [Example 302, N-(4-((2-(1,1-difluoroethyl)-6-(1-methyl-1H-pyrazol-4-yl)pyrimidin-4-yl)amino)-5-ethoxypyridin-2-yl)acetamide] | 0.01 to 0.1 µM | ≤ 0.01 µM | ≥ 1 µM | ≥ 1 µM |  |  | 
CCOc1cnc(NC(C)=O)cc1Nc1cc(-c2cnn(C3CC3)c2)nc(C(C)(F)F)n1 [Example 304, N-(4-((6-(1-cyclopropyl-1H-pyrazol-4-yl)-2-(1,1-difluoroethyl)pyrimidin-4-yl)amino)-5-ethoxypyridin-2-yl)acetamide] | ≤ 0.01 µM | ≤ 0.01 µM | ≥ 1 µM | ≥ 1 µM |  |  | 
CCOc1cnc(NC(C)=O)cc1Nc1cc(-c2cnn(C(C)C)c2)nc(C(C)(F)F)n1 [Example 306, N-(4-((2-(1,1-difluoroethyl)-6-(1-isopropyl-1H-pyrazol-4-yl)pyrimidin-4-yl)amino)-5-ethoxypyridin-2-yl)acetamide] | ≤ 0.01 µM | ≤ 0.01 µM | ≥ 1 µM | ≥ 1 µM |  |  | 
CCOc1cnc(NC(C)=O)cc1Nc1cc(-c2cnn(CC)c2)nc(C(C)(F)F)n1 [Example 311, N-(4-((2-(1,1-difluoroethyl)-6-(1-ethyl-1H-pyrazol-4-yl)pyrimidin-4-yl)amino)-5-ethoxypyridin-2-yl)acetamide] | 0.01 to 0.1 µM | ≤ 0.01 µM | ≥ 1 µM | ≥ 1 µM |  |  | 
[2H]C([2H])([2H])n1cc(-c2cc(Nc3cc(NC(C)=O)ncc3OCC)nc(C(C)(F)F)n2)cn1 [Example 314, N-(4-((2-(1,1-difluoroethyl)-6-(1-(methyl-d3)-1H-pyrazol-4-yl)pyrimidin-4-yl)amino)-5-ethoxypyridin-2-yl)acetamide] | ≤ 0.01 µM | ≤ 0.01 µM | ≥ 1 µM | ≥ 1 µM |  |  | 
[2H]C([2H])([2H])Oc1cnc(NC(C)=O)cc1Nc1cc(C(C)C)nc(C(C)(F)F)n1 [Example 315, N-(4-((2-(1,1-difluoroethyl)-6-isopropylpyrimidin-4-yl)amino)-5-(methoxy-d3)pyridin-2-yl)acetamide] | 0.01 to 0.1 µM | ≤ 0.01 µM | ≥ 1 µM | ≥ 1 µM |  |  | 
CC(=O)Nc1cc(Nc2cc(C)nc(C(C)(F)F)n2)c(OCC[C@@H](C)F)cn1 [Example 336, (R)-N-(4-((2-(1,1-difluoroethyl)-6-methylpyrimidin-4-yl)amino)-5-(3-fluorobutoxy)pyridin-2-yl)acetamide] | 0.01 to 0.1 µM | ≤ 0.01 µM | ≥ 1 µM | ≥ 1 µM |  |  | 
CO[C@H]1C[C@H](Oc2cnc(NC(C)=O)cc2Nc2cc(OC3CC3)nc(C(C)(F)F)n2)C1 [Example 350, N-(4-((6-cyclopropoxy-2-(1,1-difluoroethyl)pyrimidin-4-yl)amino)-5-((1r,3r)-3-methoxycyclobutoxy)pyridin-2-yl)acetamide] | 0.01 to 0.1 µM | ≤ 0.01 µM | ≥ 1 µM | ≥ 1 µM |  |  | 
CO[C@H]1C[C@@H](Oc2cnc(NC(C)=O)cc2Nc2cc(OC3CC3)nc(C(C)(F)F)n2)C1 [Example 351, N-(4-((6-cyclopropoxy-2-(1,1-difluoroethyl)pyrimidin-4-yl)amino)-5-((1s,3s)-3-methoxycyclobutoxy)pyridin-2-yl)acetamide] | ≤ 0.01 µM | ≤ 0.01 µM | ≥ 1 µM | ≥ 1 µM |  |  | 
CC(=O)Nc1cc(Nc2cc(OC3CC3)nc(C(C)(F)F)n2)c(O[C@H]2C[C@@H](F)C2)cn1 [Example 353, N-(4-((6-cyclopropoxy-2-(1,1-difluoroethyl)pyrimidin-4-yl)amino)-5-((1s,3s)-3-fluorocyclobutoxy)pyridin-2-yl)acetamide] | ≤ 0.01 µM | ≤ 0.01 µM | ≥ 1 µM | ≥ 1 µM |  |  | 
CCOc1cnc(NC(=O)OC)cc1Nc1cc(C)nc(C(C)(F)F)n1 [Example 360, methyl (4-((2-(1,1-difluoroethyl)-6-methylpyrimidin-4-yl)amino)-5-ethoxypyridin-2-yl)carbamate] | 0.01 to 0.1 µM | ≤ 0.01 µM | ≥ 1 µM | ≥ 1 µM |  |  | 
[2H]C([2H])([2H])C([2H])([2H])Oc1cnc(NC(C)=O)cc1Nc1cc(C(C)C)nc(C(C)(F)F)n1 [Example 362, N-(4-((2-(1,1-difluoroethyl)-6-isopropylpyrimidin-4-yl)amino)-5-(ethoxy-d5)pyridin-2-yl)acetamide] | 0.01 to 0.1 µM | ≤ 0.01 µM | ≥ 1 µM | ≥ 1 µM |  |  | 
[2H]C([2H])(C)Oc1cnc(NC(C)=O)cc1Nc1cc(C(C)C)nc(C(C)(F)F)n1 [Example 364, N-(4-((2-(1,1-difluoroethyl)-6-isopropylpyrimidin-4-yl)amino)-5-(ethoxy-1,1-d2)pyridin-2-yl)acetamide] | 0.01 to 0.1 µM | ≤ 0.01 µM | ≥ 1 µM | ≥ 1 µM |  |  | 
COCCOc1cnc(NC(C)=O)cc1Nc1cc(C)nc(C(C)(C)F)n1 [Example 406, N-(4-((2-(2-fluoropropan-2-yl)-6-methylpyrimidin-4-yl)amino)-5-(2-methoxyethoxy)pyridin-2-yl)acetamide] | ≤ 0.01 µM |  |  |  | ≤ 0.01 µM | ≥ 1 µM | ≥ 1 µM
CC(=O)Nc1cc(Nc2cc(C)nc(C(C)(F)F)n2)c(OCC2COC(C)(C)CO2)cn1 (stereo not shown) [Example 430, N-(4-((2-(1,1-difluoroethyl)-6-methylpyrimidin-4-yl)amino)-5-((5,5-dimethyl-1,4-dioxan-2-yl)methoxy)pyridin-2-yl)acetamide] | 0.01 to 0.1 µM |  |  |  | ≤ 0.01 µM | ≥ 1 µM | ≥ 1 µM
CC(=O)Nc1cc(Nc2cc(OC3CC3)nc(C(C)(F)F)n2)c(OCC2COCCO2)cn1 (stereo not shown) [Example 445, N-(5-((1,4-dioxan-2-yl)methoxy)-4-((6-cyclopropoxy-2-(1,1-difluoroethyl)pyrimidin-4-yl)amino)pyridin-2-yl)acetamide] | ≤ 0.01 µM |  |  |  | ≤ 0.01 µM | ≥ 1 µM | ≥ 1 µM
